# Data: patent US9073928B2, “Tosylate salt of cyclopropanecarboxylic acid 4-(6-chloro-3-methyl-4, 10-dihydro-3H-2,3,4,9-tetrabenzo[f]azulene-9-carbonyl)-2-fluorobenzylamide” (Vantia Limited, priority 2010, dated 2015)
# Experiments:
# [1] = Oral availability: plasma exposure in rats after oral dosing of suspensions; assay type: in vivo; details: rat, suspension in 0.5% HPMC, 10 mg/kg p.o.
# Text: The plasma exposure in rats following dosing with the cyclopropanecarboxylic acid 4-(6-chloro-3-methyl-4,10-dihydro-3H-2,3,4,9-tetraazabenzo[f]azulene-9-carbonyl)-2-fluoro-benzylamide para-toluenesulphonate (“Tosylate”) has been examined in comparison with the corresponding free base, cyclopropanecarboxylic acid 4-(6-chloro-3-methyl-4,10-dihydro-3H-2,3,4,9-tetraazabenzo[f]azulene-9-carbonyl)-2-fluoro-benzylamide (“Free Base”).
# [2] = molecular target: T1, cloned human V1a receptor (Homo sapiens, UniProt P37288); assay: In vitro functional calcium mobilisation assay (FLIPR), antagonist activity; assay type: cell-based; details: read-out: mean fpKi (Human V1a) (converted)
# T1 construct: expressed in transfected cells
# T1 sequence (P37288 whole entry): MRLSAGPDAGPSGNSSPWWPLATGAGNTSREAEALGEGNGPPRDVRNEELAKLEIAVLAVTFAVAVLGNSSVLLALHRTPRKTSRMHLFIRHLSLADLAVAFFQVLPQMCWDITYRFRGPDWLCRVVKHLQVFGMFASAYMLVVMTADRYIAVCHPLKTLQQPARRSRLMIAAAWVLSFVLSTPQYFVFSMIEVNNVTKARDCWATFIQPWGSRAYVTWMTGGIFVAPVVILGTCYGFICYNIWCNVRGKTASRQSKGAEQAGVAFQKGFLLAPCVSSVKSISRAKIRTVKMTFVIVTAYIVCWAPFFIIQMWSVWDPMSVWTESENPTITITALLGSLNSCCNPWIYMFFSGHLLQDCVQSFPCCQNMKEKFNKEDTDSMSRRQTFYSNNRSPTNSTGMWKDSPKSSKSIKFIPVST
# Text: The ability of the tosylate salt of the invention to inhibit the vasopressin V1a receptor may be determined using the in vitro functional calcium mobilisation assay (FLIPR) described in PCT/DK2005/000540. This assay measures antagonist activity at a cloned human V1a receptor.
# [3] = Thermodynamic solubility in water (spectrophotometric method)
# Description: (§1) A spectrophotometric method was used. Standards were prepared in methanol (including a methanol blank) and the absorbance measured at 260 and 270 nm, from which a calibration line was generated for each wavelength. The test compound was incubated with agitation in water at 37° C. for 24 h before removal of non-soluble material by centrifugation. The supernatant was analysed against the calibration lines (after subtraction of the water blank response) and the mean of the determinations at the two wavelengths was reported.
# physchem = details: 37 °C, water, thermodynamic from solid
# Description: as §1
# V1a vasopressin receptor = V1a vasopressin receptor (Homo sapiens, UniProt P37288); details: dysmenorrhoea patients, oral; cited from earlier work
# Sequence of V1a vasopressin receptor (P37288 whole entry): as above
smiles,measurement,setting,value
"Cc1ccc(S(=O)(=O)O)cc1.Cn1ncc2c1Nc1cc(Cl)ccc1N(C(=O)c1ccc(CNC(=O)C3CC3)c(F)c1)C2 [Tosylate, cyclopropanecarboxylic acid 4-(6-chloro-3-methyl-4,10-dihydro-3H-2,3,4,9-tetraazabenzo[f]azulene-9-carbonyl)-2-fluoro-benzylamide para-toluenesulphonate]",AUC(0-t),"[1]; in vivo, po",670 ng·h/mL
same,Cmax,"[1]; in vivo, po",209 ng/mL
same,Plasma exposure / absorption after oral dosing (in words),[1],significant improvements in plasma exposure
same,Ki,[2],3.16 nM
same,Solubility in water relative to known free base,[3],8 ×
same,solubility at 24 h,"[3]; 37 °C, thermodynamic from solid",40 µg/mL
"Cn1ncc2c1Nc1cc(Cl)ccc1N(C(=O)c1ccc(CNC(=O)C3CC3)c(F)c1)C2 [Free base, cyclopropanecarboxylic acid 4-(6-chloro-3-methyl-4,10-dihydro-3H-2,3,4,9-tetraazabenzo[f]azulene-9-carbonyl)-2-fluoro-benzylamide, reference compound]",solubility at 24 h,physchem,5 µg/mL
COc1ccc(S(=O)(=O)N2c3ccc(Cl)cc3[C@](O)(c3ccccc3Cl)[C@@H]2C(=O)N2CCC[C@H]2C(N)=O)cc1OC [SR49059],Pain and additional pain-killer use compared to placebo,V1a vasopressin receptor,dose-related decrease in the amount of additional pain-killer taken
